{"source": "PubChem BioAssay AID1259407", "about": "(Chemical Carcinogenesis Research Information System (CCRIS), 2018)", "test_system": "CCRIS mutagenicity, Ames/micronucleus/aberration tests", "experiment": "CCRIS mutagenicity studies", "note": "Calls of active or inactive are those of the source. No rule for the calls is given here.", "data": [{"compound": "ClCc1ccccc1", "values": [{"measurement": "mutagenic call", "setting": "Test System: AMES SALMONELLA TYPHIMURIUM, Strain/Indicator: TA1537, Metabolic Activation: RAT LIVER S-9, AROCLOR 1254, Method: FLUCTUATION (MICROTITER)", "result": "inactive; negative"}, {"measurement": "mutagenic call", "setting": "Test System: AMES SALMONELLA TYPHIMURIUM, Strain/Indicator: TA1537, Metabolic Activation: RAT LIVER S-9, PHENOBARBITAL AND BETA-NAPHTHOFLAVONE, Method: PREINCUBATION", "result": "inactive; negative"}, {"measurement": "mutagenic call", "setting": "Test System: AMES SALMONELLA TYPHIMURIUM, Strain/Indicator: TA1537, Metabolic Activation: RAT, LIVER, S-9, AROCLOR 1254 (10%), Method: PREINCUBATION", "result": "inactive; negative"}, {"measurement": "mutagenic call", "setting": "Test System: AMES SALMONELLA TYPHIMURIUM, Strain/Indicator: TA7001, Metabolic Activation: NONE, Method: FLUCTUATION (MICROTITER)", "result": "inactive; negative"}, {"measurement": "mutagenic call", "setting": "Test System: AMES SALMONELLA TYPHIMURIUM, Strain/Indicator: TA7001, Metabolic Activation: RAT LIVER S-9, AROCLOR 1254, Method: FLUCTUATION (MICROTITER)", "result": "inactive; negative"}, {"measurement": "mutagenic call", "setting": "Test System: AMES SALMONELLA TYPHIMURIUM, Strain/Indicator: TA7002, Metabolic Activation: NONE, Method: FLUCTUATION (MICROTITER)", "result": "inactive; negative"}, {"measurement": "mutagenic call", "setting": "Test System: AMES SALMONELLA TYPHIMURIUM, Strain/Indicator: TA7002, Metabolic Activation: RAT LIVER S-9, AROCLOR 1254, Method: FLUCTUATION (MICROTITER)", "result": "inactive; negative"}, {"measurement": "mutagenic call", "setting": "Test System: AMES SALMONELLA TYPHIMURIUM, Strain/Indicator: TA7003, Metabolic Activation: NONE, Method: FLUCTUATION (MICROTITER)", "result": "inactive; negative"}, {"measurement": "mutagenic call", "setting": "Test System: AMES SALMONELLA TYPHIMURIUM, Strain/Indicator: TA7003, Metabolic Activation: RAT LIVER S-9, AROCLOR 1254, Method: FLUCTUATION (MICROTITER)", "result": "inactive; negative"}, {"measurement": "mutagenic call", "setting": "Test System: AMES SALMONELLA TYPHIMURIUM, Strain/Indicator: TA7004, Metabolic Activation: NONE, Method: FLUCTUATION (MICROTITER)", "result": "active; positive"}, {"measurement": "mutagenic call", "setting": "Test System: AMES SALMONELLA TYPHIMURIUM, Strain/Indicator: TA7004, Metabolic Activation: RAT LIVER S-9, AROCLOR 1254, Method: FLUCTUATION (MICROTITER)", "result": "inactive; negative"}, {"measurement": "mutagenic call", "setting": "Test System: AMES SALMONELLA TYPHIMURIUM, Strain/Indicator: TA7005, Metabolic Activation: NONE, Method: FLUCTUATION (MICROTITER)", "result": "active; positive"}, {"measurement": "mutagenic call", "setting": "Test System: AMES SALMONELLA TYPHIMURIUM, Strain/Indicator: TA7005, Metabolic Activation: RAT LIVER S-9, AROCLOR 1254, Method: FLUCTUATION (MICROTITER)", "result": "inactive; negative"}, {"measurement": "mutagenic call", "setting": "Test System: AMES SALMONELLA TYPHIMURIUM, Strain/Indicator: TA7006, Metabolic Activation: NONE, Method: FLUCTUATION (MICROTITER)", "result": "inactive; negative"}, {"measurement": "mutagenic call", "setting": "Test System: AMES SALMONELLA TYPHIMURIUM, Strain/Indicator: TA7006, Metabolic Activation: RAT LIVER S-9, AROCLOR 1254, Method: FLUCTUATION (MICROTITER)", "result": "inactive; negative"}, {"measurement": "mutagenic call", "setting": "Test System: Ames Salmonella typhimurium, Strain/Indicator: TA98, Metabolic Activation: None, Method: Direct plate-incorporation", "result": "inactive; negative (no data given in original article)"}, {"measurement": "mutagenic call", "setting": "Test System: Ames Salmonella typhimurium, Strain/Indicator: TA98, Metabolic Activation: None, Method: Direct plate-incorporation using closed container", "result": "inactive; negative, moderate toxicity at highest dose."}, {"measurement": "mutagenic call", "setting": "Test System: Ames Salmonella typhimurium, Strain/Indicator: TA98, Metabolic Activation: None, Method: Vaporization-diffusion", "result": "inactive; negative"}, {"measurement": "mutagenic call", "setting": "Test System: Ames Salmonella typhimurium, Strain/Indicator: TA98, Metabolic Activation: Rat, liver, S-9, Aroclor 1254, Method: Direct plate-incorporation", "result": "inactive; negative (no data given in original article)"}, {"measurement": "mutagenic call", "setting": "Test System: Ames Salmonella typhimurium, Strain/Indicator: TA98, Metabolic Activation: Rat, liver, S-9, Aroclor 1254, Method: Direct plate-incorporation using closed container", "result": "inactive; negative, moderate toxicity at highest dose."}, {"measurement": "mutagenic call", "setting": "Test System: Ames Salmonella typhimurium, Strain/Indicator: TA98, Metabolic Activation: Rat, liver, S-9, Aroclor 1254, Method: Preincubation", "result": "inactive; negative, strain also tested without s-9, but moderate to high toxicity was obse"}, {"measurement": "mutagenic call", "setting": "Test System: Ames Salmonella typhimurium, Strain/Indicator: TA98, Metabolic Activation: Rat, liver, S-9, Aroclor 1254, Method: Vaporization-diffusion", "result": "inactive; negative"}, {"measurement": "mutagenic call", "setting": "Test System: Ames Salmonella typhimurium, Strain/Indicator: TA100, Metabolic Activation: None, Method: Direct plate-incorporation", "result": "inactive; negative"}, {"measurement": "mutagenic call", "setting": "Test System: Ames Salmonella typhimurium, Strain/Indicator: TA100, Metabolic Activation: None, Method: Vaporization-diffusion", "result": "active; positive at all doses, effect of duration of exposure evident, with only 3-hr ex"}, {"measurement": "mutagenic call", "setting": "Test System: Ames Salmonella typhimurium, Strain/Indicator: TA100, Metabolic Activation: Rat, liver, S-9, Aroclor 1254, Method: Direct plate-incorporation", "result": "active; positive (weak but dose related response; in previous test, higher dose of 2,500"}, {"measurement": "mutagenic call", "setting": "Test System: Ames Salmonella typhimurium, Strain/Indicator: TA100, Metabolic Activation: Rat, liver, S-9, Aroclor 1254, Method: Preincubation", "result": "active; positive, weak, dose-related increase in number of revertants noted. strain also"}, {"measurement": "mutagenic call", "setting": "Test System: Ames Salmonella typhimurium, Strain/Indicator: TA100, Metabolic Activation: Rat, liver, S-9, Aroclor 1254, Method: Vaporization-diffusion", "result": "active; positive at all doses, effect of duration of exposure evident, with only 3-hr ex"}, {"measurement": "mutagenic call", "setting": "Test System: Ames Salmonella typhimurium, Strain/Sex: TA100, Metabolic Activation: None, Method: Direct plate-incorporation using closed container", "result": "active; positive, moderate toxicity at highest dose."}, {"measurement": "mutagenic call", "setting": "Test System: Ames Salmonella typhimurium, Strain/Sex: TA100, Metabolic Activation: Rat, liver, S-9, Aroclor 1254, Method: Direct plate-incorporation using closed container", "result": "active; positive, moderate toxicity at highest dose."}, {"measurement": "mutagenic call", "setting": "Test System: UDS HUMAN FIBROBLASTS, Strain/Indicator: THY INCORP (NON-S-PHASE), Metabolic Activation: NONE, Method: LIQUID SCINTILLATION COUNTING", "result": "active; positive"}]}]}
